According to patent US8084586B2, “Doxorubicin immunoassay” (Saladax Biomedical, Inc., priority 2005, dated 2011):

Columns and labels:
[1] = tested on: antibodies to doxorubicin [5]-KLH (Immunogen Example 4b, Example 8); test: Indirect competitive microtiter plate ELISA, cross-reactivity, antiserum from doxorubicin [5]-KLH immunogen (Example 4b); type: binding, mouse (BALB/c); settings: relative to doxorubicin
Protocol: Mice were boosted once four weeks after the initial injection with 100 μg/mouse of the same immunogens emulsified in Incomplete Freund's Adjuvant. Ten and 28 days after the boost test bleeds from each mouse were obtained by orbital bleed. The anti-serum from the day 28 test bleeds contained doxorubicin antibodies evaluated in Examples 10a and 11. […] For the purpose of screening antibodies and measuring doxorubicin concentration by the Enzyme-Linked Immunosorbent Assay (ELISA) method polystyrene microtiter plates (Nunc MaxiSorp F8 Immunomodules) optimized for protein binding and containing 96 wells per plate were used. […] The wells were washed with 0.005 M MES, pH 6 and then were blocked with 375 μL of 5% sucrose, 0.2% sodium caseinate solution for 30 minutes at room temperature. After removal of the post-coat solution the plates were dried at 37° C. overnight. For the purpose of screening antibodies and measuring doxorubicin concentration by the Enzyme-Linked Immunosorbent Assay (ELISA) method polystyrene microtiter plates (Nunc MaxiSorp F8 Immunomodules) optimized for protein binding and containing 96 wells per plate were used. […] The wells were washed with 0.005 M MES, pH 6 and then were blocked with 375 μL of 5% sucrose, 0.2% sodium caseinate solution for 30 minutes at room temperature. After removal of the post-coat solution the plates were dried at 37° C. overnight. For the purpose of screening antibodies and measuring doxorubicin concentration by the Enzyme-Linked Immunosorbent Assay (ELISA) method polystyrene microtiter plates (Nunc MaxiSorp F8 Immunomodules) optimized for protein binding and containing 96 wells per plate were used. […] Following the incubation for color development, 50 μL of stop solution (1.5% sodium fluoride in di H2O) was added to each well to stop the color development and after 10 seconds of shaking the absorbance was determined at 650 nm with a 96-well plate reader. The amount of antibody in a well was proportional to the absorbance measured and was expressed as the dilution (titer) resulting in an absorbance of 1.5. Titers were determined by graphing log antibody dilution of the antibody measured (x-axis) vs. absorbance 650 nm (y-axis) and extrapolating the titer at an absorbance of 1.5. The titer determined the concentration (dilution) of antibody used in the indirect competitive Microtiter plate assay described in Example 11. Doxorubicin concentrations were measured by an indirect competitive Enzyme-Linked Immunosorbent Assay (ELISA) method This method for measuring doxorubicin concentrations was performed with the microtiter plates that were sensitized with doxorubicin [1]-BSA described in Examples 9b, c, d. […]

[2] = tested on: monoclonal antibody to doxorubicin [4]-KLH (Immunogen Example 3b, Example 7); test: Indirect competitive microtiter plate ELISA, cross-reactivity, monoclonal antibody from doxorubicin [4]-KLH immunogen (Example 3b); type: binding, mouse (BALB/c); settings: relative to doxorubicin
Protocol: (§1) Two groups of ten Female BALB/c mice were immunized i.p. one with 100 μg/mouse of doxorubicin [4]-BTG immunogen prepared in Example 3a and the other with 100 μg/mouse of doxorubicin [4]-KLH immunogen prepared in Example 3b emulsified in Complete Freund's adjuvant. The mice were boosted once four weeks after the initial injection with 100 μg/mouse of the same immunogens emulsified in Incomplete Freund's Adjuvant. Ten days after the boost test bleeds from each mouse were obtained by orbital bleed. For monoclonal antibodies depending on the immunogen, age and rest period of the mouse starting four days before the fusion, the mice were injected i.p. with either 400 μg (3 days before fusion), 200 μg (2 days before fusion), and […] (1 day before fusion) of doxorubicin [4]-BTG immunogen prepared in Example 3a in PBS or 100 ug on each day of doxorubicin [4]-KLH immunogen prepared in Example 3b in PBS on three successive days. According to the protocol of Coligan et al. spleen cells were isolated from the selected mice and fused with 2×10^7 cells of the myeloma fusion partner cell line (SP2/0) using 50% polyethylene glycol 1500 [Coligan, J. E. et al., eds., Current Protocols in Immunology, 2.5.1-2.5.8, (1992), Wiley & Sons, NY.] To grow the fused cells into antibody producing colonies according to the method of Coligan et al. the fused cells were plated on 10 96-well plates in a conventional HAT (hypoxanthine, aminopterin and thymidine) selective growth medium such as DMEM/F12 (Dulbecco's Modified Eagle's Medium 1:1 with L-glutamine and HEPES) supplemented with 20% fetal bovine serum alternative, and containing 2% L-glutamine (100 mM) and 2% 50× HAT. Two weeks later, the hybridoma supernatant was assayed for the presence of anti-doxorubicin antibodies by ELISA as described in Example 10b. Positive wells were expanded and again screened by the same method. The positive clones were confirmed for doxorubicin binding by a competitive ELISA as described in Example 11 or subcloned directly. Clones positive by ELISA were subcloned once or twice by limiting dilution according to the method disclosed in Coligan, J. E. et al., eds., Current Protocols in Immunology, 2.5.8-2.5.17, (1992), Wiley & Sons, NY.
(§2) For the purpose of screening antibodies and measuring doxorubicin concentration by the Enzyme-Linked Immunosorbent Assay (ELISA) method polystyrene microtiter plates (Nunc MaxiSorp F8 Immunomodules) optimized for protein binding and containing 96 wells per plate were used. Each well was coated with doxorubicin [5]-BSA 3:1 conjugate (prepared as in Example 6b) by adding 300 μL of doxorubicin [1]-BSA conjugate at 10 μg/mL in 0.01 M MES, pH=6, and incubating for three hours at room temperature. The wells were washed with 0.005 M MES, pH 6 and then were blocked with 375 μL of 5% sucrose, 0.2% sodium caseinate solution for 30 minutes at room temperature. After removal of the post-coat solution the plates were dried at 37° C. overnight.
as §2, with “[1]-BSA 1:1” for “[5]-BSA 3:1”, “6c)” for “6b)”, “[5]-BSA” for “[1]-BSA”
For the purpose of screening antibodies and measuring doxorubicin concentration by the Enzyme-Linked Immunosorbent Assay (ELISA) method polystyrene microtiter plates (Nunc MaxiSorp F8 Immunomodules) optimized for protein binding and containing 96 wells per plate were used. […]

[3] = tested on: monoclonal antibody to doxorubicin [4]-BTG (Immunogen Example 3a, Example 7); test: Indirect competitive microtiter plate ELISA, cross-reactivity, monoclonal antibody from doxorubicin [4]-BTG immunogen (Example 3a); type: binding, mouse (BALB/c); settings: relative to doxorubicin
Protocol: as §1
as §2, with “The wells were washed with 0.005 M MES, pH 6 and then were blocked with 375 μL of 5% sucrose, 0.2% sodium caseinate solution for 30 minutes at room temperature. After removal of the post-coat solution the plates were dried at 37° C. overnight.” left out

[4] = tested on: antibodies to doxorubicin [5]-BTG (Immunogen Example 4a, Example 8); test: Indirect competitive microtiter plate ELISA, cross-reactivity, antiserum from doxorubicin [5]-BTG immunogen (Example 4a); type: binding, mouse (BALB/c); settings: relative to doxorubicin
Protocol: Mice were boosted once four weeks after the initial injection with 100 μg/mouse of the same immunogens emulsified in Incomplete Freund's Adjuvant. Ten and 28 days after the boost test bleeds from each mouse were obtained by orbital bleed. The anti-serum from the day 28 test bleeds contained doxorubicin antibodies evaluated in Examples 10a and 11. […] For the purpose of screening antibodies and measuring doxorubicin concentration by the Enzyme-Linked Immunosorbent Assay (ELISA) method polystyrene microtiter plates (Nunc MaxiSorp F8 Immunomodules) optimized for protein binding and containing 96 wells per plate were used. […] The wells were washed with 0.005 M MES, pH 6 and then were blocked with 375 μL of 5% sucrose, 0.2% sodium caseinate solution for 30 minutes at room temperature. After removal of the post-coat solution the plates were dried at 37° C. overnight. […] The wells were washed with 0.005 M MES, pH 6 and then were blocked with 375 μL of 5% sucrose, 0.2% sodium caseinate solution for 30 minutes at room temperature. After removal of the post-coat solution the plates were dried at 37° C. overnight. For the purpose of screening antibodies and measuring doxorubicin concentration by the Enzyme-Linked Immunosorbent Assay (ELISA) method polystyrene microtiter plates (Nunc MaxiSorp F8 Immunomodules) optimized for protein binding and containing 96 wells per plate were used. […] The wells were washed with 0.005 M MES, pH 6 and then were blocked with 375 μL of 5% sucrose, 0.2% sodium caseinate solution for 30 minutes at room temperature. After removal of the post-coat solution the plates were dried at 37° C. overnight. Antibodies were screened by Enzyme-Linked Immunosorbent Assay (ELISA) method. […] During this incubation antibody binds to the doxorubicin [5]-conjugate in the well. […] After an incubation of 10 minutes at room temperature with shaking, during which the goat anti-mouse antibody—HRP enzyme conjugate binds to doxorubicin antibodies in the wells, the plates were again washed three times to remove unbound goat anti-mouse antibody—HRP enzyme conjugate. To develop a measurable color in the wells washing was followed by the addition of 100 μL of TMB (TMB Liquid Substrate), a substrate for HRP, to develop color during a 10 minute incubation with shaking at room temperature. Following the incubation for color development, 50 μL of stop solution (1.5% sodium fluoride in di H2O) was added to each well to stop the color development and after 10 seconds of shaking the absorbance was determined at 650 nm with a 96-well plate reader. The amount of antibody in a well was proportional to the absorbance measured and was expressed as the dilution (titer) resulting in an absorbance of 1.5. Titers were determined by graphing log antibody dilution of the antibody measured (x-axis) vs. absorbance 650 nm (y-axis) and extrapolating the titer at an absorbance of 1.5. The titer determined the concentration (dilution) of antibody used in the indirect competitive Microtiter plate assay described in Example 11. Doxorubicin concentrations were measured by an indirect competitive Enzyme-Linked Immunosorbent Assay (ELISA) method This method for measuring doxorubicin concentrations was performed with the microtiter plates that were sensitized with doxorubicin [1]-BSA described in Examples 9b, c, d. […] During the 10 minute incubation (R.T., with shaking) there is a competition of antibody binding for the doxorubicin conjugate in the well and the analyte in solution. […]

[5] = tested on: antibody as produced in Examples 7 and 8 with immunogen of Examples 3a, 3b, 4a & b; test: Competitive immunoassay cross-reactivity, antibodies of Examples 7 and 8 taken together; type: binding, mouse; settings: antibodies of Examples 7 and 8, immunogens of Examples 3a
Protocol: The present invention relates to novel antibodies and monoclonal antibodies to doxorubicin. The antisera of the invention can be conveniently produced by immunizing host animals with the immunogens of this invention. Suitable host animals include rodents, such as, for example, mice, rats, rabbits, guinea pigs and the like, or higher mammals such as goats, sheep, horses and the like. […] Doxorubicin concentrations were measured by an indirect competitive Enzyme-Linked Immunosorbent Assay (ELISA) method This method for measuring doxorubicin concentrations was performed with the microtiter plates that were sensitized with doxorubicin [1]-BSA described in Examples 9b, c, d. […] The assay was performed by incubating 50 μL of the analytes to be measured with 50 μL of antibody (produced in Examples 7 and 8 with immunogens of Examples 3a, 3b, 4a and 4b) diluted to a titer determined in Example 10a. […] Following the incubation for color development, 50 μL of stop solution (1.5% sodium fluoride in di H2O) was added to each well to stop the color development and after 10 seconds of shaking the absorbance was determined at 650 nm with a 96-well plate reader. The amount of antibody in a well was proportional to the absorbance measured and inversely proportional to the amount of doxorubicin in the sample. […]

[6] = plate sensitized as in Example 9b (doxorubicin [5]-BSA 3:1)
[7] = plate sensitized as in Example 9c (doxorubicin [5]-BSA 1:1)
[8] = plate sensitized as in Example 9d (doxorubicin [5]-BSA 1:1 thiol capped)

Row | Structure (SMILES) | % cross-reactivity [1, 6] [%] | % cross-reactivity [1, 7] [%] | % cross-reactivity [1, 8] [%] | % cross-reactivity [2, 6] [%] | % cross-reactivity [2, 7] [%] | % cross-reactivity [2, 8] [%] | % cross-reactivity [3, 6] [%] | % cross-reactivity [3, 7] [%] | % cross-reactivity [4, 6] [%] | % cross-reactivity [4, 7] [%] | % cross-reactivity [4, 8] [%] | percent cross-reactivity relative to doxorubicin [5]
1 | COc1cccc2c1C(=O)c1c(O)c3c(c(O)c1C2=O)C[C@@](O)(C(=O)CO)C[C@@H]3O[C@H]1C[C@H](N)[C@H](O)[C@H](C)O1.Cl [doxorubicin] | 100 | 100 | 100 | 100 | 100 | 100 | 100 | 100 | 100 | 100 | 100 | 
2 | COc1cccc2c1C(=O)c1c(O)c3c(c(O)c1C2=O)C[C@@](O)(C(=O)CO)C[C@@H]3O [doxorubicin-aglycone, doxorubicin aglycone] | 8.6 |  |  | 1.5 | 3.9 | 3.0 | 10.6 | 12.9 | 5.7 | 10.0 | 8.8 | less than or equal to 10%
